Data reported in PubChem BioAssay AID1259407 (Chemical Carcinogenesis Research Information System (CCRIS), 2018).
Active and inactive are the calls of the source. How the calls were made is not given here.

Tested on: CCRIS mutagenicity, Ames/micronucleus/aberration tests
Test: CCRIS mutagenicity studies
[1] = Test System: AMES SALMONELLA TYPHIMURIUM, Strain/Indicator: TA98, Metabolic Activation: HAMSTER, LIVER, S-9, AROCLOR 1254 (10%), Method: PREINCUBATION
[2] = Test System: AMES SALMONELLA TYPHIMURIUM, Strain/Indicator: TA98, Metabolic Activation: NONE, Method: PREINCUBATION
[3] = Test System: AMES SALMONELLA TYPHIMURIUM, Strain/Indicator: TA98, Metabolic Activation: RAT, LIVER, S-9, AROCLOR 1254 (10%), Method: PREINCUBATION
[4] = Test System: AMES SALMONELLA TYPHIMURIUM, Strain/Indicator: TA100, Metabolic Activation: HAMSTER, LIVER, S-9, AROCLOR 1254 (10%), Method: PREINCUBATION
[5] = Test System: AMES SALMONELLA TYPHIMURIUM, Strain/Indicator: TA100, Metabolic Activation: NONE, Method: PREINCUBATION
[6] = Test System: AMES SALMONELLA TYPHIMURIUM, Strain/Indicator: TA100, Metabolic Activation: NONE, Method: STANDARD PLATE
[7] = Test System: AMES SALMONELLA TYPHIMURIUM, Strain/Indicator: TA100, Metabolic Activation: RAT, LIVER, S-9, AROCLOR 1254 (10%), Method: PREINCUBATION
[8] = Test System: AMES SALMONELLA TYPHIMURIUM, Strain/Indicator: TA1535, Metabolic Activation: HAMSTER, LIVER, S-9, AROCLOR 1254 (10%), Method: PREINCUBATION
[9] = Test System: AMES SALMONELLA TYPHIMURIUM, Strain/Indicator: TA1535, Metabolic Activation: NONE, Method: PREINCUBATION
[10] = Test System: AMES SALMONELLA TYPHIMURIUM, Strain/Indicator: TA1535, Metabolic Activation: RAT, LIVER, S-9, AROCLOR 1254 (10%), Method: PREINCUBATION

O=S(=O)(O)c1ccc(N=Nc2c(O)ccc3cc(S(=O)(=O)O)ccc23)cc1
mutagenic call (End Point: IN VITRO CHROMOSOMAL ABERRATIONS, Test System: CHO CELLS, Metabolic Activation: NONE): inactive; negative | mutagenic call (End Point: IN VITRO CHROMOSOMAL ABERRATIONS, Test System: CHO CELLS, Metabolic Activation: RAT, LIVER, S-9, AROCLOR 1254): inactive; negative | mutagenic call (Test System: AMES SALMONELLA TYPHIMURIUM, Strain/Indicator: TA97, Metabolic Activation: HAMSTER, LIVER, S-9, AROCLOR 1254 (10%), Method: PREINCUBATION): inactive; negative | mutagenic call (Test System: AMES SALMONELLA TYPHIMURIUM, Strain/Indicator: TA97, Metabolic Activation: HAMSTER, LIVER, S-9, AROCLOR 1254 (30%), Method: PREINCUBATION): inactive; negative | mutagenic call (Test System: AMES SALMONELLA TYPHIMURIUM, Strain/Indicator: TA97, Metabolic Activation: NONE, Method: PREINCUBATION): inactive; negative | mutagenic call (Test System: AMES SALMONELLA TYPHIMURIUM, Strain/Indicator: TA97, Metabolic Activation: RAT, LIVER, S-9, AROCLOR 1254 (10%), Method: PREINCUBATION): inactive; negative | mutagenic call (Test System: AMES SALMONELLA TYPHIMURIUM, Strain/Indicator: TA97, Metabolic Activation: RAT, LIVER, S-9, AROCLOR 1254 (30%), Method: PREINCUBATION): inactive; negative | mutagenic call [1]: inactive; negative | mutagenic call (Test System: AMES SALMONELLA TYPHIMURIUM, Strain/Indicator: TA98, Metabolic Activation: HAMSTER, LIVER, S-9, AROCLOR 1254 (30%), Method: PREINCUBATION): inactive; negative | mutagenic call [2]: inactive; negative | mutagenic call (Test System: AMES SALMONELLA TYPHIMURIUM, Strain/Indicator: TA98, Metabolic Activation: NONE, Method: STANDARD PLATE): inactive; negative | mutagenic call (Test System: AMES SALMONELLA TYPHIMURIUM, Strain/Indicator: TA98, Metabolic Activation: RAT LIVER S-9, AROCLOR 1254, Method: STANDARD PLATE): inactive; negative | mutagenic call [3]: inactive; negative | mutagenic call (Test System: AMES SALMONELLA TYPHIMURIUM, Strain/Indicator: TA98, Metabolic Activation: RAT, LIVER, S-9, AROCLOR 1254 (30%), Method: PREINCUBATION): inactive; negative | mutagenic call (Test System: AMES SALMONELLA TYPHIMURIUM, Strain/Indicator: TA98, Metabolic Activation: RAT, LIVER, S-9, PHENOBARBITAL, Method: PREINCUBATION): inactive; negative | mutagenic call [4]: inactive; negative | mutagenic call (Test System: AMES SALMONELLA TYPHIMURIUM, Strain/Indicator: TA100, Metabolic Activation: HAMSTER, LIVER, S-9, AROCLOR 1254 (30%), Method: PREINCUBATION): inactive; negative | mutagenic call [5]: inactive; negative | mutagenic call [6]: inactive; negative | mutagenic call (Test System: AMES SALMONELLA TYPHIMURIUM, Strain/Indicator: TA100, Metabolic Activation: RAT LIVER S-9, AROCLOR 1254, Method: STANDARD PLATE): inactive; negative | mutagenic call [7]: inactive; negative | mutagenic call (Test System: AMES SALMONELLA TYPHIMURIUM, Strain/Indicator: TA100, Metabolic Activation: RAT, LIVER, S-9, AROCLOR 1254 (30%), Method: PREINCUBATION): inactive; negative | mutagenic call (Test System: AMES SALMONELLA TYPHIMURIUM, Strain/Indicator: TA100, Metabolic Activation: RAT, LIVER, S-9, PHENOBARBITAL, Method: PREINCUBATION): inactive; negative | mutagenic call [8]: inactive; negative | mutagenic call (Test System: AMES SALMONELLA TYPHIMURIUM, Strain/Indicator: TA1535, Metabolic Activation: HAMSTER, LIVER, S-9, AROCLOR 1254 (30%), Method: PREINCUBATION): inactive; negative | mutagenic call [9]: inactive; negative | mutagenic call [10]: inactive; negative | mutagenic call (Test System: AMES SALMONELLA TYPHIMURIUM, Strain/Indicator: TA1535, Metabolic Activation: RAT, LIVER, S-9, AROCLOR 1254 (30%), Method: PREINCUBATION): inactive; negative

COc1ccc(CN(C)N=O)cc1
mutagenic call (Test System: AMES SALMONELLA TYPHIMURIUM, Strain/Indicator: TA1535, Metabolic Activation: HAMSTER, LIVER, S-9, AROCLOR 1254, Method: STANDARD PLATE): inactive; negative | mutagenic call (Test System: AMES SALMONELLA TYPHIMURIUM, Strain/Indicator: TA1535, Metabolic Activation: NONE, Method: STANDARD PLATE): inactive; negative

CN(C)CC(=O)O
mutagenic call [6]: inactive; negative | mutagenic call (Test System: AMES SALMONELLA TYPHIMURIUM, Strain/Indicator: TA100, Metabolic Activation: RAT, LIVER, S-9, AROCLOR 1254, Method: STANDARD PLATE): inactive; negative

O=C1c2ccccc2-c2ccc([N+](=O)[O-])c3cccc1c23
mutagenic call (End Point: IN VITRO MICRONUCLEUS, Test System: HUMAN B-LYMPHOBLASTOID CELLS (MCL-5), Metabolic Activation: NONE): active; positive | mutagenic call (End Point: In vivo micronucleus, Test System: lacZ mutant frequency in liver, lung, and bone marrow cells, Species: Mouse, Strain/Sex: Big Blue (BALB/c x DBA2)/Male, Route: Oral): active; positive in liver and bone marrow | mutagenic call (Test System: Human lymphoblastoid cells, Strain/Indicator: MCL-5 (HPRT)/6-Thioguanine, Metabolic Activation: None, Method: Well plates): active; positive | mutagenic call (Test System: Human lymphoblastoid cells, Strain/Indicator: MCL-5 (tk+/tk-)/Trifluorothymidine, Metabolic Activation: None, Method: Well plates): active; positive | mutagenic call (Test System: Human lymphoblastoid cells, Strain/Indicator: h1A1v2 (HPRT)/6-Thioguanine, Metabolic Activation: None, Method: Well plates): active; positive | mutagenic call (Test System: Human lymphoblastoid cells, Strain/Indicator: h1A1v2 (tk+/tk-)/Trifluorothymidine, Metabolic Activation: None, Method: Well plates): active; positive

NC(=O)OC1CO1 (stereo not drawn)
mutagenic call (Test System: AMES SALMONELLA TYPHIMURIUM, Strain/Indicator: TA1535, Metabolic Activation: RAT, LIVER, MICROSOMES, Method: STANDARD PLATE): active; positive

Oc1ccc2c(ccc3c4ccccc4ccc23)c1
mutagenic call (Test System: AMES SALMONELLA TYPHIMURIUM, Strain/Indicator: TA98, Metabolic Activation: RAT, LIVER, S-9, AROCLOR 1254, Method: STANDARD PLATE): inactive; negative | mutagenic call [6]: inactive; negative

CN(C)CCCN
mutagenic call [1]: inactive; negative | mutagenic call [2]: inactive; negative | mutagenic call [3]: inactive; negative | mutagenic call (Test System: AMES SALMONELLA TYPHIMURIUM, Strain/Indicator: TA98, Metabolic Activation: RAT, LIVER, S-9, PCB, Method: PREINCUBATION): inactive; negative | mutagenic call [4]: inactive; negative | mutagenic call [5]: inactive; negative | mutagenic call [7]: inactive; negative | mutagenic call (Test System: AMES SALMONELLA TYPHIMURIUM, Strain/Indicator: TA100, Metabolic Activation: RAT, LIVER, S-9, PCB, Method: PREINCUBATION): inactive; negative | mutagenic call [8]: inactive; negative | mutagenic call [9]: inactive; negative | mutagenic call [10]: inactive; negative | mutagenic call (Test System: AMES SALMONELLA TYPHIMURIUM, Strain/Indicator: TA1537, Metabolic Activation: HAMSTER, LIVER, S-9, AROCLOR 1254 (10%), Method: PREINCUBATION): inactive; negative | mutagenic call (Test System: AMES SALMONELLA TYPHIMURIUM, Strain/Indicator: TA1537, Metabolic Activation: NONE, Method: PREINCUBATION): inactive; negative | mutagenic call (Test System: AMES SALMONELLA TYPHIMURIUM, Strain/Indicator: TA1537, Metabolic Activation: RAT, LIVER, S-9, AROCLOR 1254 (10%), Method: PREINCUBATION): inactive; negative

CCCCN(CCO)N=O
mutagenic call (Test System: AMES SALMONELLA TYPHIMURIUM, Strain/Indicator: TA1535, Metabolic Activation: RAT, LIVER, S-9, KC500 OR PHENOBARBITAL, Method: LIQUID SUSPENSION): active; positive

CC(=O)ON(OCc1ccc([N+](=O)[O-])cc1)C(=O)c1ccccc1
mutagenic call [6]: active; positive | mutagenic call (Test System: AMES SALMONELLA TYPHIMURIUM, Strain/Indicator: TA100, Metabolic Activation: RAT, S-9, AROCLOR, Method: STANDARD PLATE): active; positive
